# Target: H1047R PIK3CA enzyme (Homo sapiens, UniProt P42336, H1047R)
# Test: ADP-Glo Biochemical PIK3CA Kinase Assay
# Sequence of H1047R PIK3CA enzyme (P42336 whole entry H1047R): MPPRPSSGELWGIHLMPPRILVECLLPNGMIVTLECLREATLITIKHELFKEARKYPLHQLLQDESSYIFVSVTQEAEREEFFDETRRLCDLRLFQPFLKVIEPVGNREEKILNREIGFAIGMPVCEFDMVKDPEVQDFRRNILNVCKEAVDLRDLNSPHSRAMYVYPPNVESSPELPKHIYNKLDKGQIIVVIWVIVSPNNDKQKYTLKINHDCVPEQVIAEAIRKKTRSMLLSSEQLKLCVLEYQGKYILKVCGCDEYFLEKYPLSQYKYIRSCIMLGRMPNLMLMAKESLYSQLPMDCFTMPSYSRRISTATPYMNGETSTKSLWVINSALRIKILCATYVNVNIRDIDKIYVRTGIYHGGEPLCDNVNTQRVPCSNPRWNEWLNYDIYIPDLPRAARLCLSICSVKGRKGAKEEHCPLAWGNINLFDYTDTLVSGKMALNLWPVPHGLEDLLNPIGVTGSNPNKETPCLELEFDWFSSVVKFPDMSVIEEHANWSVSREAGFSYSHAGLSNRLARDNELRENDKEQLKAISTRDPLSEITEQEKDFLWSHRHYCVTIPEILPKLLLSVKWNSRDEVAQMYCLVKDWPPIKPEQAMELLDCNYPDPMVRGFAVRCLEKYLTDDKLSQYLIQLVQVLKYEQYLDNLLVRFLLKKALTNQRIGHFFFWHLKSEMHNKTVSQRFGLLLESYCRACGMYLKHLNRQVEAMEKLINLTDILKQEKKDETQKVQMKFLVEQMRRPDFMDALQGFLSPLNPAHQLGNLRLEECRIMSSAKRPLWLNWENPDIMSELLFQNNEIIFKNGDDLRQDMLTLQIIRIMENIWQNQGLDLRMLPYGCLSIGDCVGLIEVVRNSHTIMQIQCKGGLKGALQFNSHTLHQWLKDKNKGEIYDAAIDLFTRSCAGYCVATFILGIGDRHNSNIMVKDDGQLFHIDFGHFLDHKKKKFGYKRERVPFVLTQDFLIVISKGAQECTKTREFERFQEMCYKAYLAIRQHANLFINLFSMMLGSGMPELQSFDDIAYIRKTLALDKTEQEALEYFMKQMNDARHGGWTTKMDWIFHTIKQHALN
# Sequence of H1047R PIK3CA enzyme (P27986 whole entry partner): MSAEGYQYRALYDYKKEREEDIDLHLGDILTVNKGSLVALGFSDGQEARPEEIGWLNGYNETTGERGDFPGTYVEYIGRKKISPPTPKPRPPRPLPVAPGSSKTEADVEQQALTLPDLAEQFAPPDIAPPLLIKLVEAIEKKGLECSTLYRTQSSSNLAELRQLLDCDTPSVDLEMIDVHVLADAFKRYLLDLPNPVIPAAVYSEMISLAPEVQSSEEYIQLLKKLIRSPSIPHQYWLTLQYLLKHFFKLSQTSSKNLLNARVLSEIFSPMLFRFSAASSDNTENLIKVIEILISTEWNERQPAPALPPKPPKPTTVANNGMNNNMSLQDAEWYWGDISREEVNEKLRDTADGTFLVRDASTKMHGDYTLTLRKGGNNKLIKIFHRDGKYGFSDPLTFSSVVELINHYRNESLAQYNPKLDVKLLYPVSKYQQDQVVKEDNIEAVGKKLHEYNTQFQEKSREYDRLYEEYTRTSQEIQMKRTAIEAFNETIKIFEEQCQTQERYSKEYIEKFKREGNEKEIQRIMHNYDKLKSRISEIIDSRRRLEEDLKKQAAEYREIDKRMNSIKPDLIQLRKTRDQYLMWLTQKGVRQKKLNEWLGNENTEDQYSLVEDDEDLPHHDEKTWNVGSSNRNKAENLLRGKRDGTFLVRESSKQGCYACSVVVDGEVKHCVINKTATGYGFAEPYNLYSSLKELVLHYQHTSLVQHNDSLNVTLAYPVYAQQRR
row,Structure (SMILES),IC50 [nM]
1,O=C(Nc1cc(-c2cnn(-c3cnccn3)c2)cc2c1C(c1cc(F)ccc1Cl)NC2=O)c1cc(F)cc(C(F)(F)F)c1 (centres unmarked) [Compound I-1608],≤ 100
2,"N#C[C@H]1C[C@H](c2cc(NC(=O)c3cc(F)cc(C(F)(F)F)c3)c3c(c2)C(=O)N[C@H]3c2cc(F)ccc2Cl)C1 (single isomer, unassigned) [Compound I-1326]",≤ 100
3,NCC(O)c1cc(NC(=O)c2cc(F)cc(C(F)(F)F)c2)c2c(c1)C(=O)NC2c1cc(F)ccc1Cl (centres unmarked) [Compound I-1290],100 to 500
4,O=C1NC(c2cc(F)ccc2Cl)c2c(NC(=O)C3OCCc4ccccc43)cc(-c3ccc4ncnn4c3)cc21 (centres unmarked) [Compound I-1939],1000 to 10000
5,O=C1NC(c2cc(F)ccc2Cl)c2c(CN3CCCCC3=O)cc(-c3ccc4ncnn4c3)cc21 (centres unmarked) [Compound I-1999],10000 to 100000
6,O=C(Nc1cc(Br)cc2c1C(c1cc(F)ccc1Cl)NC2=O)c1cc(F)cc(CF)c1 (centres unmarked) [Compound I-1119],500 to 1000
7,N#Cc1cnn2ccc(-c3cc(NC(=O)c4cc(F)cc(C(F)(F)F)c4)c4c(c3)C(=O)N[C@@H]4c3cc(F)ccc3Cl)cc12 [Compound I-1798],1000 to 10000
8,Cc1ccccc1C1NC(=O)c2cccc(NC(=O)c3cnc(OCC(C)C)c(F)c3)c21 (centres unmarked) [Compound I-111],10000 to 100000
9,O=C(Nc1cc(C2=CN3CCN=C3C=C2)cc2c1[C@H](c1cc(F)ccc1Cl)NC2=O)c1cc(F)cc(C(F)(F)F)c1 [Compound I-2090],≤ 100
10,O=C1N[C@@H](c2cc(F)ccc2Cl)c2c(N[C@H]3COCc4ccccc43)cc(Br)cc21 (racemic) [Compound I-1893],10000 to 100000
11,"Cn1cc(Nc2cc(NC(=O)c3cc(F)cc(C(F)(F)F)c3)c3c(c2)C(=O)N[C@@H]3c2cc(F)ccc2Cl)cn1 (single isomer, unassigned) [Compound I-998]",500 to 1000
12,O=C(Nc1cc(-c2cn(C(F)F)cn2)cc2c1[C@H](c1cc(F)ccc1Cl)NC2=O)c1cc(F)cc(C(F)(F)F)c1 [Compound I-1919],≤ 100
13,CS(=O)(Cc1cc(NC(=O)c2cc(F)cc(C(F)(F)F)c2)c2c(c1)C(=O)NC2c1cc(F)ccc1Cl)=Nc1ccccc1 (centres unmarked) [Compound I-1435],≤ 100
14,O=C1NC(c2cc(F)ccc2Cl)c2c1cc(-c1ccc3ncnn3c1)cc2-c1ccc2ccccc2c1 (centres unmarked) [Compound I-1729],1000 to 10000
15,N#Cc1ccc(C2NC(=O)c3cccc(NC(=O)c4cc(F)cc(C(F)(F)F)c4)c32)c(Cl)c1 (centres unmarked) [Compound I-422],10000 to 100000
16,"CN(C)c1cc(NC(=O)N2C[C@@](O)(C(F)(F)F)c3cc(F)ccc32)c2c(n1)C(=O)N[C@@H]2c1cc(F)ccc1Cl (single isomer, unassigned) [Compound I-2693]",10000 to 100000
17,"O=C1N[C@@H](c2cc(F)ccc2Cl)c2c(NC(=O)N3C[C@](O)(C(F)F)c4ccccc43)cccc21 (single isomer, unassigned) [Compound I-2485]",1000 to 10000
18,"C[C@@H]([C@H]1C[C@H](O)CN1C(=O)Nc1cccc2c1[C@H](c1cc(F)ccc1Cl)NC2=O)C(F)(F)F (single isomer, unassigned) [Compound I-2378]",10000 to 100000
19,"N#CCc1cc(NC(=O)N2C[C@H](O)c3cc(F)ccc32)c2c(c1)C(=O)N[C@H]2c1cc(F)ccc1Cl (single isomer, unassigned) [Compound I-2539]",1000 to 10000
20,O=C(Nc1cc(CN2CCn3ncnc3C2)cc2c1C(c1cc(F)ccc1Cl)NC2=O)c1cc(F)cc(C(F)(F)F)c1 (centres unmarked) [Compound I-1400],≤ 100
21,O=C(Nc1cc(Br)cc2c1C(c1cc(F)ccc1Cl)NC2=O)c1cc(Cl)cc(F)c1Cl (centres unmarked) [Compound I-694],1000 to 10000

row,Structure (SMILES),IC50 [nM]
1,CNC(=O)c1cc(NC(=O)c2nsc3ccccc23)c2c(c1)C(=O)NC2c1ccccc1C (centres unmarked) [Compound I-123],≤ 100
2,O=C(Nc1cc(C2CCO2)cc2c1C(c1cc(F)ccc1Cl)NC2=O)c1cc(F)cc(C(F)(F)F)c1 (racemic) [Compound I-662],100 to 500
3,"C[C@@H](c1nn[nH]c1C(=O)Nc1cccc2c1[C@@H](c1cc(F)ccc1Cl)NC2=O)C(F)(F)F (single isomer, unassigned) [Compound I-2270]",10000 to 100000
4,Cc1ccccc1CC1NC(=O)c2cccc(NC(=O)c3cc(F)cc(C(F)(F)F)c3)c21 (centres unmarked) [Compound I-841],1000 to 10000
5,"O=C(Nc1cc(-c2cnn(-c3ncccn3)c2)cc2c1C(c1cc(F)ccc1Cl)NC2=O)c1cc(F)cc(C(F)(F)F)c1 (single isomer, unassigned) [Compound I-1555]",≤ 100
6,O=C(Nc1cc(/N=C2\OC[C@H]3CCCN23)cc2c1C(c1cc(F)ccc1Cl)NC2=O)c1cc(F)cc(C(F)(F)F)c1 (some centres unmarked) [Compound I-2354],100 to 500
7,O=C(Nc1cc(-c2ccc3ncnn3c2)cc2c1C(c1cc(F)ccc1Cl)NC2=O)c1ccccc1 (centres unmarked) [Compound I-1550],1000 to 10000
8,"C[C@]1(C(=O)Nc2cc(Br)cc3c2[C@H](c2cc(F)ccc2Cl)NC3=O)CCC[C@@H](C(F)(F)F)C1 (single isomer, unassigned) [Compound I-2263]",1000 to 10000
9,O=C(Nc1cc(Br)cc2c1C(c1cc(F)ccc1Cl)NC2=O)c1cnn(-c2ccccc2)c1 (centres unmarked) [Compound I-561],10000 to 100000
10,"O=C1N[C@H](c2cc(F)ccc2Cl)c2c(NC(=O)[C@H]3C[C@@H](O)C[C@@H](C(F)(F)F)C3)cc(Br)cc21 (single isomer, unassigned) [Compound I-2272]",10000 to 100000
11,"CC[C@@H](CC(=O)Nc1cccc2c1[C@H](c1cc(F)ccc1Cl)NC2=O)[C@H](C)C(F)(F)F (single isomer, unassigned) [Compound I-2336]",1000 to 10000
12,Cc1ccccc1C1NC(=O)c2c(C(N)=O)ncc(NC(=O)c3cc(F)cc(C(F)(F)F)c3)c21 (centres unmarked) [Compound I-265],100 to 500
13,"[2H]C1([2H])N(C(=O)Nc2cccc3c2[C@H](c2cc(F)ccc2Cl)NC3=O)c2ccc(F)cc2[C@@]1(O)C(F)(F)F (single isomer, unassigned) [Compound I-2593]",1000 to 10000
14,"O=C1N[C@H](c2cc(F)ccc2Cl)c2c(NC(=O)N3C[C@@H](O)c4cc(F)ccc43)cc(-n3ccccc3=O)cc21 (single isomer, unassigned) [Compound I-2352]",1000 to 10000
15,Cc1ncc(-c2cc(NC(=O)c3cc(F)cc(C(F)(F)F)c3)c3c(n2)C(=O)N[C@H]3c2cc(F)ccc2Cl)cn1 [Compound I-653],≤ 100
16,O=C(Nc1cc(N2CC3(COC3)C2)cc2c1C(c1cc(F)ccc1Cl)NC2=O)c1cc(F)cc(C(F)(F)F)c1 (centres unmarked) [Compound I-729],≤ 100
17,O=C1N[C@@H](c2cc(F)ccc2Cl)c2c(NC(=O)c3csc4ccccc34)cc(Br)cc21 [Compound I-734],≤ 100
18,O=C(Nc1cc(Cn2ccnc2)cc2c1C(c1cc(F)ccc1Cl)NC2=O)c1cc(F)cc(C(F)(F)F)c1 (centres unmarked) [Compound I-1430],≤ 100
19,"O=C(Nc1cc(-c2cnn(C(F)F)c2)cc2c1[C@@H](c1cc(F)ccc1Cl)NC2=O)c1cc(F)cc(C(F)(F)F)c1 (single isomer, unassigned) [Compound I-1739]",1000 to 10000
20,Cc1ccccc1C1NC(=O)c2cccc(NC(=O)c3cc(F)cc(OC(F)F)c3)c21 (centres unmarked) [Compound I-59],1000 to 10000
21,O=C1NC(c2cc(F)ccc2Cl)c2c(NC(=O)N3CCCc4ccccc4C3)cccc21 (centres unmarked) [Compound I-2305],10000 to 100000

row,Structure (SMILES),IC50 [nM]
1,O=C(Nc1cc(-c2ccc3nccn3n2)cc2c1[C@@H](c1cc(F)ccc1Cl)NC2=O)c1cc(F)cc(C(F)(F)F)c1 [Compound I-1331],1000 to 10000
2,O=C(Nc1cccc2c1C(c1cc(F)ccc1Cl)NC2=O)c1cc(B(O)O)cc(C(F)(F)F)c1 (centres unmarked) [Compound I-450],1000 to 10000
3,N#CCn1nccc1-c1cc(NC(=O)c2cc(F)cc(C(F)(F)F)c2)c2c(c1)C(=O)NC2c1cc(F)ccc1Cl (centres unmarked) [Compound I-1303],≤ 100
4,O=C1NC(c2cc(F)ccc2Cl)c2c(NC(=O)C34CCC(CC3)O4)cc(-c3ccc4ncnn4c3)cc21 (centres unmarked) [Compound I-1966],10000 to 100000
5,CC1(Cc2cc(NC(=O)N3CC(O)c4cc(F)ccc43)c3c(c2)C(=O)NC3c2cc(F)ccc2Cl)COC1 (centres unmarked) [Compound I-2490],500 to 1000
6,O=C(Nc1cc(C(F)(F)F)ccc1Cl)Nc1cc(Br)cc2c1C(c1cc(F)ccc1Cl)NC2=O (centres unmarked) [Compound I-1176],100 to 500
7,Nc1cc(NC(=O)c2cc(F)cc(C(F)(F)F)c2)c2c(c1)C(=O)NC2c1cccc(F)c1 (centres unmarked) [Compound I-2320],500 to 1000
8,CCn1cc(-c2cc(NC(=O)c3cc(F)cc(C(F)(F)F)c3)c3c(n2)C(=O)NC3c2cc(F)ccc2Cl)ccc1=O (centres unmarked) [Compound I-586],≤ 100
9,CNS(=O)(=O)Cc1cc(NC(=O)c2cc(F)cc(C(F)(F)F)c2)c2c(c1)C(=O)N[C@@H]2c1cc(F)ccc1Cl [Compound I-1533],100 to 500
10,COc1cnccc1-c1cc(NC(=O)c2cc(F)cc(C(F)(F)F)c2)c2c(c1)C(=O)NC2c1cc(F)ccc1Cl (centres unmarked) [Compound I-1219],≤ 100
11,Cc1c(F)cccc1C1NC(=O)c2cccc(NC(=O)c3nsc4ccccc34)c21 (centres unmarked) [Compound I-106],100 to 500
12,"CNc1cc(NC(=O)N2C[C@@](O)(C(F)(F)F)c3cc(F)ccc32)c2c(c1C#N)C(=O)N[C@@H]2c1cc(F)ccc1Cl (single isomer, unassigned) [Compound I-2607]",1000 to 10000
13,Cn1nc(C(F)F)cc1-c1cc(NC(=O)c2cc(F)cc(C(F)(F)F)c2)c2c(c1)C(=O)N[C@@H]2c1cc(F)ccc1Cl [Compound I-1879],1000 to 10000
14,COC(=O)c1cc(Nc2cccc3c2C(c2cc(F)ccc2Cl)NC3=O)ncc1C(F)(F)F (centres unmarked) [Compound I-1238],1000 to 10000
15,CC(C)c1cc(N)nn1C(=O)Nc1cccc2c1C(c1cc(F)ccc1Cl)NC2=O (centres unmarked) [Compound I-2466],10000 to 100000
16,O=C(Nc1cc(-c2ccnc(C(=O)O)c2)cc2c1C(c1cc(F)ccc1Cl)NC2=O)c1cc(F)cc(C(F)(F)F)c1 (centres unmarked) [Compound I-2137],≤ 100
17,O=C(Nc1cc(-c2cncnc2)cc2c1[C@@H](c1cc(F)ccc1Cl)NC2=O)c1cc(F)cc(C(F)(F)F)c1 [Compound I-1094],500 to 1000
18,O=C(Nc1cccc2c(=O)[nH]n(C3CCCCC3)c12)c1cc(F)cc(C(F)(F)F)c1 [Compound I-629],1000 to 10000
19,O=C1NC(c2cc(F)ccc2Cl)c2c(NC(=O)N3CCCC(F)C3)cc(Br)cc21 (centres unmarked) [Compound I-491],10000 to 100000
20,O=C(Nc1cc(N2CC(F)C2)nc2c1C(c1cc(F)ccc1Cl)NC2=O)c1cc(F)cc(C(F)(F)F)c1 (centres unmarked) [Compound I-488],≤ 100
